# Numbers after ± are expanded uncertainties.
# Assay: xn = mol fraction of the nth substance listed
# Conditions: 101.32 kPa, Liquid; for speed of sound: Frequency=3 MHz, Linear variable-path acoustic interferometer
compound,measurement,setting,value
CC(C)C(=O)O [2-methylpropanoic acid] + C1COCCO1,speed of sound,"295.15 K, x2 = 0",1100.2 ± 1.6 m/s
same,speed of sound,"295.15 K, x2 = 0.1",1119.6 ± 1.6 m/s
same,speed of sound,"295.15 K, x2 = 0.2",1140 ± 1.6 m/s
same,speed of sound,"295.15 K, x2 = 0.3",1161.7 ± 1.6 m/s
same,speed of sound,"295.15 K, x2 = 0.4",1184.5 ± 1.7 m/s
same,speed of sound,"295.15 K, x2 = 0.5",1208.8 ± 1.7 m/s
same,speed of sound,"295.15 K, x2 = 0.6",1234.7 ± 1.7 m/s
same,speed of sound,"295.15 K, x2 = 0.7",1262.3 ± 1.7 m/s
same,speed of sound,"295.15 K, x2 = 0.8",1291.8 ± 1.7 m/s
same,speed of sound,"295.15 K, x2 = 0.9",1323.6 ± 1.8 m/s
same,mass density,"295.15 K, x2 = 0",945.28 ± 1 kg/m3
same,mass density,"295.15 K, x2 = 0.1",955.63 ± 0.96 kg/m3
same,mass density,"295.15 K, x2 = 0.2",965.46 ± 0.9 kg/m3
same,mass density,"295.15 K, x2 = 0.3",975.08 ± 0.85 kg/m3
same,mass density,"295.15 K, x2 = 0.4",984.2 ± 0.79 kg/m3
same,mass density,"295.15 K, x2 = 0.5",993.05 ± 0.74 kg/m3
same,mass density,"295.15 K, x2 = 0.6",1001.52 ± 0.71 kg/m3
same,mass density,"295.15 K, x2 = 0.7",1009.56 ± 0.76 kg/m3
same,mass density,"295.15 K, x2 = 0.8",1017.23 ± 0.81 kg/m3
same,mass density,"295.15 K, x2 = 0.9",1024.38 ± 0.86 kg/m3
same,speed of sound,"298.15 K, x2 = 0",1086 ± 1.6 m/s
same,speed of sound,"298.15 K, x2 = 0.1",1105.4 ± 1.6 m/s
same,speed of sound,"298.15 K, x2 = 0.2",1125.9 ± 1.6 m/s
same,speed of sound,"298.15 K, x2 = 0.3",1147.5 ± 1.6 m/s
same,speed of sound,"298.15 K, x2 = 0.4",1170.5 ± 1.7 m/s
same,speed of sound,"298.15 K, x2 = 0.5",1194.9 ± 1.7 m/s
same,speed of sound,"298.15 K, x2 = 0.6",1220.8 ± 1.7 m/s
same,speed of sound,"298.15 K, x2 = 0.7",1248.6 ± 1.7 m/s
same,speed of sound,"298.15 K, x2 = 0.8",1278.3 ± 1.7 m/s
same,speed of sound,"298.15 K, x2 = 0.9",1310.3 ± 1.8 m/s
same,mass density,"298.15 K, x2 = 0",942.22 ± 1 kg/m3
same,mass density,"298.15 K, x2 = 0.1",952.65 ± 0.98 kg/m3
same,mass density,"298.15 K, x2 = 0.2",962.63 ± 0.92 kg/m3
same,mass density,"298.15 K, x2 = 0.3",972.12 ± 0.86 kg/m3
same,mass density,"298.15 K, x2 = 0.4",981.18 ± 0.81 kg/m3
same,mass density,"298.15 K, x2 = 0.5",989.97 ± 0.76 kg/m3
same,mass density,"298.15 K, x2 = 0.6",998.46 ± 0.71 kg/m3
same,mass density,"298.15 K, x2 = 0.7",1006.5 ± 0.74 kg/m3
same,mass density,"298.15 K, x2 = 0.8",1014.12 ± 0.79 kg/m3
same,mass density,"298.15 K, x2 = 0.9",1021.3 ± 0.84 kg/m3
same,speed of sound,"301.15 K, x2 = 0",1072.1 ± 1.6 m/s
same,speed of sound,"301.15 K, x2 = 0.1",1091.5 ± 1.6 m/s
same,speed of sound,"301.15 K, x2 = 0.2",1111.9 ± 1.6 m/s
same,speed of sound,"301.15 K, x2 = 0.3",1133.6 ± 1.6 m/s
same,speed of sound,"301.15 K, x2 = 0.4",1156.6 ± 1.6 m/s
same,speed of sound,"301.15 K, x2 = 0.5",1181.1 ± 1.7 m/s
same,speed of sound,"301.15 K, x2 = 0.6",1207.2 ± 1.7 m/s
same,speed of sound,"301.15 K, x2 = 0.7",1235 ± 1.7 m/s
same,speed of sound,"301.15 K, x2 = 0.8",1264.9 ± 1.7 m/s
same,speed of sound,"301.15 K, x2 = 0.9",1297.1 ± 1.8 m/s
same,mass density,"301.15 K, x2 = 0",939.16 ± 1.1 kg/m3
same,mass density,"301.15 K, x2 = 0.1",949.87 ± 0.99 kg/m3
same,mass density,"301.15 K, x2 = 0.2",959.66 ± 0.94 kg/m3
same,mass density,"301.15 K, x2 = 0.3",969.21 ± 0.88 kg/m3
same,mass density,"301.15 K, x2 = 0.4",978.18 ± 0.83 kg/m3
same,mass density,"301.15 K, x2 = 0.5",986.93 ± 0.78 kg/m3
same,mass density,"301.15 K, x2 = 0.6",995.31 ± 0.73 kg/m3
same,mass density,"301.15 K, x2 = 0.7",1003.43 ± 0.72 kg/m3
same,mass density,"301.15 K, x2 = 0.8",1011.08 ± 0.77 kg/m3
same,mass density,"301.15 K, x2 = 0.9",1018.24 ± 0.82 kg/m3
same,speed of sound,"304.15 K, x2 = 0",1058.2 ± 1.6 m/s
same,speed of sound,"304.15 K, x2 = 0.1",1077.6 ± 1.6 m/s
same,speed of sound,"304.15 K, x2 = 0.2",1098 ± 1.6 m/s
same,speed of sound,"304.15 K, x2 = 0.3",1119.7 ± 1.6 m/s
same,speed of sound,"304.15 K, x2 = 0.4",1142.8 ± 1.6 m/s
same,speed of sound,"304.15 K, x2 = 0.5",1167.3 ± 1.7 m/s
same,speed of sound,"304.15 K, x2 = 0.6",1193.4 ± 1.7 m/s
same,speed of sound,"304.15 K, x2 = 0.7",1221.5 ± 1.7 m/s
same,speed of sound,"304.15 K, x2 = 0.8",1251.5 ± 1.7 m/s
same,speed of sound,"304.15 K, x2 = 0.9",1283.9 ± 1.7 m/s
same,mass density,"304.15 K, x2 = 0",936.1 ± 1.1 kg/m3
same,mass density,"304.15 K, x2 = 0.1",946.87 ± 1 kg/m3
same,mass density,"304.15 K, x2 = 0.2",956.7 ± 0.95 kg/m3
same,mass density,"304.15 K, x2 = 0.3",966.21 ± 0.9 kg/m3
same,mass density,"304.15 K, x2 = 0.4",975.19 ± 0.84 kg/m3
same,mass density,"304.15 K, x2 = 0.5",983.97 ± 0.79 kg/m3
same,mass density,"304.15 K, x2 = 0.6",992.36 ± 0.74 kg/m3
same,mass density,"304.15 K, x2 = 0.7",1000.47 ± 0.7 kg/m3
same,mass density,"304.15 K, x2 = 0.8",1008.1 ± 0.75 kg/m3
same,mass density,"304.15 K, x2 = 0.9",1015.19 ± 0.8 kg/m3
same,speed of sound,"307.15 K, x2 = 0",1043.4 ± 1.6 m/s
same,speed of sound,"307.15 K, x2 = 0.1",1062.8 ± 1.6 m/s
same,speed of sound,"307.15 K, x2 = 0.2",1083.4 ± 1.6 m/s
same,speed of sound,"307.15 K, x2 = 0.3",1105.1 ± 1.6 m/s
same,speed of sound,"307.15 K, x2 = 0.4",1128.3 ± 1.6 m/s
same,speed of sound,"307.15 K, x2 = 0.5",1152.9 ± 1.6 m/s
same,speed of sound,"307.15 K, x2 = 0.6",1179.3 ± 1.7 m/s
same,speed of sound,"307.15 K, x2 = 0.7",1207.5 ± 1.7 m/s
same,speed of sound,"307.15 K, x2 = 0.8",1237.9 ± 1.7 m/s
same,speed of sound,"307.15 K, x2 = 0.9",1270.7 ± 1.7 m/s
same,mass density,"307.15 K, x2 = 0",933.04 ± 1.1 kg/m3
same,mass density,"307.15 K, x2 = 0.1",943.94 ± 1 kg/m3
same,mass density,"307.15 K, x2 = 0.2",953.7 ± 0.97 kg/m3
same,mass density,"307.15 K, x2 = 0.3",963.19 ± 0.91 kg/m3
same,mass density,"307.15 K, x2 = 0.4",972.14 ± 0.86 kg/m3
same,mass density,"307.15 K, x2 = 0.5",981.02 ± 0.81 kg/m3
same,mass density,"307.15 K, x2 = 0.6",989.41 ± 0.76 kg/m3
same,mass density,"307.15 K, x2 = 0.7",997.53 ± 0.71 kg/m3
same,mass density,"307.15 K, x2 = 0.8",1005.12 ± 0.73 kg/m3
same,mass density,"307.15 K, x2 = 0.9",1011.87 ± 0.78 kg/m3
same,speed of sound,"310.15 K, x2 = 0",1030.8 ± 1.6 m/s
same,speed of sound,"310.15 K, x2 = 0.1",1050.1 ± 1.6 m/s
same,speed of sound,"310.15 K, x2 = 0.2",1070.6 ± 1.6 m/s
same,speed of sound,"310.15 K, x2 = 0.3",1092.3 ± 1.6 m/s
same,speed of sound,"310.15 K, x2 = 0.4",1115.4 ± 1.6 m/s
same,speed of sound,"310.15 K, x2 = 0.5",1139.9 ± 1.6 m/s
same,speed of sound,"310.15 K, x2 = 0.6",1166.3 ± 1.7 m/s
same,speed of sound,"310.15 K, x2 = 0.7",1194.5 ± 1.7 m/s
same,speed of sound,"310.15 K, x2 = 0.8",1224.9 ± 1.7 m/s
same,speed of sound,"310.15 K, x2 = 0.9",1257.7 ± 1.7 m/s
same,mass density,"310.15 K, x2 = 0",929.98 ± 1.1 kg/m3
same,mass density,"310.15 K, x2 = 0.1",941.03 ± 1.1 kg/m3
same,mass density,"310.15 K, x2 = 0.2",950.89 ± 0.99 kg/m3
same,mass density,"310.15 K, x2 = 0.3",960.24 ± 0.93 kg/m3
same,mass density,"310.15 K, x2 = 0.4",969.24 ± 0.88 kg/m3
same,mass density,"310.15 K, x2 = 0.5",978.07 ± 0.83 kg/m3
same,mass density,"310.15 K, x2 = 0.6",986.45 ± 0.78 kg/m3
same,mass density,"310.15 K, x2 = 0.7",994.54 ± 0.73 kg/m3
same,mass density,"310.15 K, x2 = 0.8",1002.1 ± 0.71 kg/m3
same,mass density,"310.15 K, x2 = 0.9",1008.86 ± 0.76 kg/m3
same,speed of sound,"313.15 K, x2 = 0",1015.2 ± 1.6 m/s
same,speed of sound,"313.15 K, x2 = 0.1",1034.6 ± 1.6 m/s
same,speed of sound,"313.15 K, x2 = 0.2",1055.1 ± 1.6 m/s
same,speed of sound,"313.15 K, x2 = 0.3",1076.9 ± 1.6 m/s
same,speed of sound,"313.15 K, x2 = 0.4",1100.2 ± 1.6 m/s
same,speed of sound,"313.15 K, x2 = 0.5",1125 ± 1.6 m/s
same,speed of sound,"313.15 K, x2 = 0.6",1151.6 ± 1.6 m/s
same,speed of sound,"313.15 K, x2 = 0.7",1180.1 ± 1.7 m/s
same,speed of sound,"313.15 K, x2 = 0.8",1210.9 ± 1.7 m/s
same,speed of sound,"313.15 K, x2 = 0.9",1244.2 ± 1.7 m/s
same,mass density,"313.15 K, x2 = 0",926.92 ± 1.1 kg/m3
same,mass density,"313.15 K, x2 = 0.1",938.11 ± 1.1 kg/m3
same,mass density,"313.15 K, x2 = 0.2",947.93 ± 1 kg/m3
same,mass density,"313.15 K, x2 = 0.3",957.22 ± 0.95 kg/m3
same,mass density,"313.15 K, x2 = 0.4",966.21 ± 0.9 kg/m3
same,mass density,"313.15 K, x2 = 0.5",975.03 ± 0.84 kg/m3
same,mass density,"313.15 K, x2 = 0.6",983.45 ± 0.8 kg/m3
same,mass density,"313.15 K, x2 = 0.7",991.62 ± 0.75 kg/m3
same,mass density,"313.15 K, x2 = 0.8",999.14 ± 0.7 kg/m3
same,mass density,"313.15 K, x2 = 0.9",1005.92 ± 0.74 kg/m3

# Source: the NIST ThermoML archive (doi:10.1021/je5010643)
